Results on 47 compounds are retold here after patent publication US20100331297A1, “MODULATION OF PROTEIN TRAFFICKING” (FOLDRX PHARMACEUTICALS, INC., priority 2007, published 2010).

Some results are limits rather than exact numbers.

For test [1], the target named is T1, ΔF508 CFTR (Homo sapiens, UniProt P13569, DEL508-508). As to the kind of experiment: Corrector activity, YFP halide (iodide) quenching assay in FRT cells expressing ΔF508 CFTR. The test is classed as cell-based. The settings on record: FRT cells ΔF508 CFTR/YFP, 24 hours with compound at 37° C., forskolin and genistein; read-out: Corrector EC50. Further details: expressed in transfected cells; host or cells: Fischer rat thyroid (FRT) cells. In a few lines:
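FRT cells co-expressing ΔF508 CFTR and halide-sensitive YFP were incubated 24 h at 37° C with compounds, then stimulated 30 min at 37° C in PBS with forskolin and genistein. Endpoint fluorescence after iodide injection was normalized to initial reading; EC50 from 4-parameter fit with bottom constrained to DMSO control.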

For test [2], the target named is T1, ΔF508 CFTR. As to the kind of experiment: Potentiator activity, YFP halide (iodide) quenching assay in FRT cells expressing ΔF508 CFTR, 27° C. pre-incubation. It is filed as cell-based. Also on record: expressed in transfected cells; host or cells: Fischer rat thyroid (FRT) cells. The settings on record: FRT cells ΔF508 CFTR/YFP, 24 hours at 27° C., compound with forskolin 30 min. The gist of the method:
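FRT cells stably co-expressing ΔF508 CFTR and halide-sensitive YFP, grown 24 h at 37° C. then 24 h at 27° C. to raise surface CFTR. Compounds in PBS with forskolin, 30 min at 37° C.; iodide injected and YFP quenching (ex 485/em 530 nm) followed. EC50 from normalized endpoint fluorescence.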

T1 sequence (P13569 with tags, fused parts or gaps DEL508-508): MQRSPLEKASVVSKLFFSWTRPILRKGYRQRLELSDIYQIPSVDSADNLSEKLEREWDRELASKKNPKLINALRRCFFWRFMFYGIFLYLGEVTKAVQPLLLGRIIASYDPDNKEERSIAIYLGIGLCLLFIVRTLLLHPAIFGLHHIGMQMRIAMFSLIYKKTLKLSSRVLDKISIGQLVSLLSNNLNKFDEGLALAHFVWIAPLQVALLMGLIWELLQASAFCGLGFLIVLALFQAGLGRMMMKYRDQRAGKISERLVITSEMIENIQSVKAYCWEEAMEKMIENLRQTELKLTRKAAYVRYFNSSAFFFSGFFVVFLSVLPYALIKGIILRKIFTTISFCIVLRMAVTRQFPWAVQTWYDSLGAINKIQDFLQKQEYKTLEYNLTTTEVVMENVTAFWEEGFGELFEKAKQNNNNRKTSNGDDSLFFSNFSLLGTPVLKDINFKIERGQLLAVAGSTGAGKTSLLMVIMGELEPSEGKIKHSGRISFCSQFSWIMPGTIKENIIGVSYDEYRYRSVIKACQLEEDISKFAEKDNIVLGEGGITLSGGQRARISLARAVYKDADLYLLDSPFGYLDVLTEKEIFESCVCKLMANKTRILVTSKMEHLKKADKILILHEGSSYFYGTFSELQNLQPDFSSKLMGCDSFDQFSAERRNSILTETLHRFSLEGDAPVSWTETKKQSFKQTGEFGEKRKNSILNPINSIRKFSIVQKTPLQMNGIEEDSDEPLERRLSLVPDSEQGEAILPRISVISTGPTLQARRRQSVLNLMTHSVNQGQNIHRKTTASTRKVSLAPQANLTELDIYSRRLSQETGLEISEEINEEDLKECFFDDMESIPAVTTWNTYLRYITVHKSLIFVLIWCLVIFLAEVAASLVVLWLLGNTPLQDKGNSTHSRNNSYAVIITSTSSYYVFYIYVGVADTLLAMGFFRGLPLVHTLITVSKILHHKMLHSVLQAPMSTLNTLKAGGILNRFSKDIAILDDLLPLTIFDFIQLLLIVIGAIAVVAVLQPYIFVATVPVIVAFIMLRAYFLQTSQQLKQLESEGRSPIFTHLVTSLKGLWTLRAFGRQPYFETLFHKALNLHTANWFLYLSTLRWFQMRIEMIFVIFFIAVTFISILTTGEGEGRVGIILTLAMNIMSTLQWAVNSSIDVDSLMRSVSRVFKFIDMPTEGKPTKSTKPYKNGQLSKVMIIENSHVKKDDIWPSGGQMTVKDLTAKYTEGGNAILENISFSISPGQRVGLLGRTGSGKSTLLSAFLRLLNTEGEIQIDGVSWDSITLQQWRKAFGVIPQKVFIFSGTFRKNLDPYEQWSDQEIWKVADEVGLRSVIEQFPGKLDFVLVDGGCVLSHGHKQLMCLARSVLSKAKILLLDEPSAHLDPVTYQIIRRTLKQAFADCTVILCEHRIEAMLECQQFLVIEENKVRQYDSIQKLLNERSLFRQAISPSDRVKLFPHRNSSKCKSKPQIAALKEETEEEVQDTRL

In the case of `CC(C)(C)n1nc(-c2ccc(Cl)cc2)c2c(NC(=O)N3CCCCC3)ncnc21` [compound 273], the 50% effective concentration (EC50) on ΔF508 CFTR [1] and at ΔF508 CFTR [2] was greater than 15 µM in each case.

With `CC(C)(C)n1nc(S(=O)(=O)c2ccccc2)c2c(N)ncnc21` [compound 191, 3-Benzenesulfonyl-1-tert-butyl-1H-pyrazolo[3,4-d]pyrimidin-4-ylamine], the EC50 was greater than 15 µM on ΔF508 CFTR [1] and 5 to 10 µM at ΔF508 CFTR [2].

With `O=[N+]([O-])c1ccc(Nc2ncnc3[nH]nc(-c4ccc(Cl)cc4)c23)nc1` [compound 293], the EC50 at ΔF508 CFTR [1] and on ΔF508 CFTR [2] was greater than 15 µM throughout.

Regarding `CCn1nc(Nc2cccc(Cl)c2)c2c(N)ncnc21` [compound 286], the EC50 at ΔF508 CFTR [1] and on ΔF508 CFTR [2] was greater than 15 µM throughout.

As to `CC(C)(C)n1nc(-c2cccc(Oc3ccccc3)c2)c2c(N)ncnc21` [compound 132], the EC50 on ΔF508 CFTR [1] and at ΔF508 CFTR [2] was greater than 15 µM each time.

With `CC(C)(C)C(=O)Nc1ncnc2c1c(-c1ccc(Cl)cc1)cn2C(C)(C)C` [compound 349], the EC50 on ΔF508 CFTR [1] and on ΔF508 CFTR [2] was 2 to 5 µM throughout.

For the compound `CC(C)(C)OC(=O)N1CC(n2nc(Oc3ccccc3)c3c(N)ncnc32)C1` [Compound No. 341, 3-(4-Amino-3-phenoxy-pyrazolo[3,4-d]pyrimidin-1-yl)-azetidine-1-carboxylic acid tert-butyl ester], the EC50 on ΔF508 CFTR [1] is greater than 15 µM; at ΔF508 CFTR [2], 5 to 10 µM.

In the case of `CCNC(=O)N1CC(n2nc(-c3ccc(Cl)cc3)c3c(N)ncnc32)C1` [Compound No. 275, 3-[4-Amino-3-(4-chloro-phenyl)-pyrazolo[3,4-d]pyrimidin-1-yl]azetidine-1-carboxylic acid ethylamide], the EC50 on ΔF508 CFTR [1] and at ΔF508 CFTR [2] was greater than 15 µM in each case.

Consider `CCn1cc(-c2ccc(Cl)cc2)c2c(NC(=O)C(C)(C)C)ncnc21` [compound 322], for which the EC50 at ΔF508 CFTR [1] and on ΔF508 CFTR [2] was 2 to 5 µM throughout.

`CC(C)(C)n1nc([S+]([O-])c2ccccc2)c2c(N)ncnc21` (stereo not shown) [compound 173, 3-benzenesulfinyl-1-tert-butyl-1H-pyrazolo[3,4-d]pyrimidin-4-ylamine]: the EC50 on ΔF508 CFTR [1] and on ΔF508 CFTR [2] was greater than 15 µM in each case.

In the case of `CCn1nc(-c2ccc(N=[N+]=[N-])cc2)c2c(N)ncnc21` [compound 170], the half-maximal effective concentration (EC50) at ΔF508 CFTR [1] was 5 to 10 µM; at ΔF508 CFTR [2], greater than 15 µM.

As for `CC(C)(C)n1nc(Oc2cccc3c2CCCC3)c2c(N)ncnc21` [compound 209], the half-maximal effective concentration (EC50) at ΔF508 CFTR [1] and at ΔF508 CFTR [2] was greater than 15 µM throughout.

As for `CCn1nc(-c2ccc(Cl)cc2)c2c(N)ncnc21` [compound 67], the concentration giving a half-maximal response (EC50) on ΔF508 CFTR [1] is greater than 15 µM; on ΔF508 CFTR [2], 2 to 5 µM.

`CN(C)C(=O)Nc1ncnc2c1c(-c1ccc(Cl)cc1)nn2C(C)(C)C` [compound 269]: the concentration giving a half-maximal response (EC50) on ΔF508 CFTR [1] and on ΔF508 CFTR [2] was greater than 15 µM throughout.

In the case of `CCn1nc(Sc2ccc(Cl)cc2)c2c(N)ncnc21` [compound 216], the EC50 at ΔF508 CFTR [1] was greater than 15 µM; at ΔF508 CFTR [2] it was less than 2 µM.

On to `CC(C)(C)n1nc(Oc2cccc(OC(F)(F)F)c2)c2c(N)ncnc21` [compound 194], for which the EC50 at ΔF508 CFTR [1] and on ΔF508 CFTR [2] was greater than 15 µM in each case.

For `Nc1ncnc2c1c(Oc1cccc(Cl)c1)nn2C1CCC1` [compound 228], the values for the EC50 at ΔF508 CFTR [1] and on ΔF508 CFTR [2] were greater than 15 µM and less than 2 µM, respectively.

Take `Nc1ncnc2c1c(-c1ccc(Cl)cc1)nn2C1CCCC1` [compound 247]: the concentration for a half-maximal effect (EC50) on ΔF508 CFTR [1] and at ΔF508 CFTR [2] was 2 to 5 µM throughout.

On to `CCNC(=O)N1CC(n2nc(Sc3cccc(Cl)c3)c3c(N)ncnc32)C1` [Compound No. 346, 3-[4-Amino-3-(3-chloro-phenylsulfanyl)-pyrazolo[3,4-d]pyrimidin-1-yl]-azetidine-1-carboxylic acid ethylamide], for which the 50% effective concentration (EC50) at ΔF508 CFTR [1] and on ΔF508 CFTR [2] was greater than 15 µM throughout.

With `CC(C)(C)OC(=O)N1CC(n2nc(Sc3ccccc3)c3c(N)ncnc32)C1` [Compound No. 320, 3-(4-Amino-3-phenylsulfanyl-pyrazolo[3,4-d]pyrimidin-1-yl)-azetidine-1-carboxylic acid tert-butyl ester], the half-maximal effective concentration (EC50) was greater than 15 µM at ΔF508 CFTR [1] and 2 to 5 µM at ΔF508 CFTR [2].

In the case of `CCn1nc(Sc2cccc(C)c2)c2c(N)ncnc21` [compound 218], the EC50 on ΔF508 CFTR [1] is 5 to 10 µM; on ΔF508 CFTR [2] it was less than 2 µM.

For the compound `CCn1nc(Sc2cccc(OC(F)(F)F)c2)c2c(N)ncnc21` [compound 281], the concentration for a half-maximal effect (EC50) at ΔF508 CFTR [1] and on ΔF508 CFTR [2] was greater than 15 µM throughout.

Consider `CC(C)(C)n1cc(-c2ccc(Cl)cc2)c2c(N)ncnc21` [Compound No. 261, 7-tert-Butyl-5-(4-chloro-phenyl)-7H-pyrrolo[2,3-d]pyrimidin-4-ylamine], for which the EC50 at ΔF508 CFTR [1] and on ΔF508 CFTR [2] was less than 2 µM in each case.

Consider `Nc1ncnc2c1c(-c1ccc(Cl)cc1)nn2[C@H]1CCOC1` [compound 318], for which the EC50 on ΔF508 CFTR [1] and on ΔF508 CFTR [2] was greater than 15 µM throughout.

Regarding `CCn1cc(-c2ccc(Cl)cc2)c2c(NC(=O)C(C)C)ncnc21` [compound 336], the EC50 on ΔF508 CFTR [1] was less than 2 µM; at ΔF508 CFTR [2], 5 to 10 µM.

Turning to `Nc1ncnc2c1c(Oc1cccc(Cl)c1)nn2CC1CCC1` [compound 256], the EC50 on ΔF508 CFTR [1] is greater than 15 µM; on ΔF508 CFTR [2], less than 2 µM.

For `CC(C)(C)n1nc(-c2ccc(Cl)cc2)c2c(NC(=O)N3CCOCC3)ncnc21` [compound 268], the EC50 at ΔF508 CFTR [1] and at ΔF508 CFTR [2] was greater than 15 µM each time.

As to `Nc1ncnc2c1c(-c1ccc(Cl)cc1)cn2CC1CC1` [Compound No. 242, 5-(4-Chloro-phenyl)-7-cyclopropylmethyl-7H-pyrrolo[2,3-d]pyrimidin-4-ylamine], the figures for the EC50 at ΔF508 CFTR [1] and at ΔF508 CFTR [2] were less than 2 µM and 2 to 5 µM, respectively.

Turning to `CC(C)(C)n1nc([S+]([O-])c2ccccn2)c2c(N)ncnc21` (stereo not shown) [compound 329], the EC50 on ΔF508 CFTR [1] and on ΔF508 CFTR [2] was greater than 15 µM each time.

For `CC(C)(C)OC(=O)N1CC(n2nc(-c3ccc(Cl)cc3)c3c(N)ncnc32)C1` [Compound No. 267, 3-[4-Amino-3-(4-chloro-phenyl)-pyrazolo[3,4-d]pyrimidin-1-yl]-azetidine-1-carboxylic acid tert-butyl ester], the EC50 is greater than 15 µM on ΔF508 CFTR [1] and 2 to 5 µM on ΔF508 CFTR [2].

`CCn1cc(-c2ccc(Cl)cc2)c2c(NC(=O)c3ccccc3)ncnc21` [compound 272]: the 50% effective concentration (EC50) is less than 2 µM at ΔF508 CFTR [1] and greater than 15 µM at ΔF508 CFTR [2].

`CCn1nc([S+]([O-])c2ccc(F)cc2F)c2c(N)ncnc21` (stereo not shown) [compound 292]: the EC50 on ΔF508 CFTR [1] and on ΔF508 CFTR [2] was greater than 15 µM each time.

For `CCn1nc([S+]([O-])c2cccc(C(F)(F)F)c2)c2c(N)ncnc21` (stereo not shown) [compound 284], the EC50 on ΔF508 CFTR [1] and on ΔF508 CFTR [2] was greater than 15 µM in each case.

On to `CC(C)(C)n1nc(Oc2cccc(Cl)c2)c2c(NC(=O)c3ccccc3)ncnc21` [Compound No. 332, N-[1-tert-Butyl-3-(3-chloro-phenoxy)-1H-pyrazolo[3,4-d]pyrimidin-4-yl]-benzamide], for which the EC50 on ΔF508 CFTR [1] is greater than 15 µM; at ΔF508 CFTR [2], less than 2 µM.

In the case of `CC(C)(C)n1nc(O)c2c(N)ncnc21` [compound 325, 4-amino-1-tert-butyl-1H-pyrazolo[3,4-d]pyrimidin-3-ol], the EC50 at ΔF508 CFTR [1] and at ΔF508 CFTR [2] was greater than 15 µM in each case.

In the case of `CC(C)(C)n1nc(Oc2ccccn2)c2c(N)ncnc21` [compound 330], the EC50 on ΔF508 CFTR [1] and on ΔF508 CFTR [2] was greater than 15 µM each time.

Consider `CCn1nc([S+]([O-])c2cccc3ccccc23)c2c(N)ncnc21` (stereo not shown) [compound 241], for which the EC50 at ΔF508 CFTR [1] and at ΔF508 CFTR [2] was greater than 15 µM throughout.

Regarding `Nc1ncnc2c1c(Oc1cccc(Cl)c1)nn2CC(F)F` [compound 263], the EC50 on ΔF508 CFTR [1] and at ΔF508 CFTR [2] was greater than 15 µM in each case.

Regarding `CCNC(=O)N1CCC(n2nc(-c3ccc(Cl)cc3)c3c(N)ncnc32)CC1` [compound 319], the EC50 at ΔF508 CFTR [1] and on ΔF508 CFTR [2] was greater than 15 µM in each case.

Turning to `Cc1cccc(Oc2nn(C(C)(C)C)c3ncnc(N)c23)c1C` [compound 167], the EC50 on ΔF508 CFTR [1] was greater than 15 µM; at ΔF508 CFTR [2], less than 2 µM.

For the compound `CCn1cc(Sc2ccccc2)c2c(N)ncnc21` [Compound No. 333, 7-Ethyl-5-phenylsulfanyl-7H-pyrrolo[2,3-d]pyrimidin-4-ylamine], the EC50 was 2 to 5 µM on ΔF508 CFTR [1] and less than 2 µM on ΔF508 CFTR [2].

Take `CC(=O)N(C(C)=O)c1ncnc2c1c(-c1ccc(Cl)cc1)nn2C(C)(C)C` [Compound No. 97]: the half-maximal effective concentration (EC50) at ΔF508 CFTR [1] and on ΔF508 CFTR [2] was 2 to 5 µM throughout.

On to `Nc1ncnc2c1c(-c1ccc(Cl)cc1)nn2CC(F)F` [compound 202], for which the values for the EC50 on ΔF508 CFTR [1] and at ΔF508 CFTR [2] were 5 to 10 µM and greater than 15 µM, respectively.

Regarding `Cc1ccc(-c2nn(C(C)(C)C)c3ncnc(NC(=O)c4ccc(F)cc4)c23)cc1` [compound 94], the figures for the concentration giving a half-maximal response (EC50) on ΔF508 CFTR [1] and at ΔF508 CFTR [2] were 5 to 10 µM and greater than 15 µM, respectively.

Take `Cn1cc(-c2ccc(Cl)cc2)c2c(N)ncnc21` [compound 310]: the EC50 at ΔF508 CFTR [1] was less than 2 µM; on ΔF508 CFTR [2], greater than 15 µM.

With `CCn1cc(-c2ccc(Cl)cc2)c2c(N(C)C(C)=O)ncnc21` [compound 282], the EC50 on ΔF508 CFTR [1] and at ΔF508 CFTR [2] was greater than 15 µM throughout.

Consider `CCn1nc([S+]([O-])c2cccc(O)c2)c2c(N)ncnc21` (stereo not shown) [compound 285], for which the half-maximal effective concentration (EC50) on ΔF508 CFTR [1] and at ΔF508 CFTR [2] was greater than 15 µM in each case.

As usually defined, the EC50 is the concentration giving half of the maximal effect.
